Legend:
IKKε = IKKε (Homo sapiens (Human), UniProt Q14164); assay: IKKε TR-FRET enzymatic assay; assay type: biochemical; conditions: TR-FRET, 2×Km ATP; geometric mean of minimum four determinations; read-out: IKKe IC50
hJAK2 = hJAK2 (Homo sapiens (Human), UniProt O60674); assay: hJAK2 LANCE TR-FRET enzymatic assay; assay type: biochemical; conditions: read-out: JAK2 IC50
TBK1 = TBK1 (Homo sapiens (Human), UniProt Q9UHD2); assay: TBK1 TR-FRET enzymatic assay;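 further: phosphorylation of a biotinylated Ser/Thr peptide by purified full-length recombinant TBK1, read by TR-FRET after 240 min at 25 °C, IC50 is the geometric mean of at least four runs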
Sequence of TBK1 (Q9UHD2 whole entry): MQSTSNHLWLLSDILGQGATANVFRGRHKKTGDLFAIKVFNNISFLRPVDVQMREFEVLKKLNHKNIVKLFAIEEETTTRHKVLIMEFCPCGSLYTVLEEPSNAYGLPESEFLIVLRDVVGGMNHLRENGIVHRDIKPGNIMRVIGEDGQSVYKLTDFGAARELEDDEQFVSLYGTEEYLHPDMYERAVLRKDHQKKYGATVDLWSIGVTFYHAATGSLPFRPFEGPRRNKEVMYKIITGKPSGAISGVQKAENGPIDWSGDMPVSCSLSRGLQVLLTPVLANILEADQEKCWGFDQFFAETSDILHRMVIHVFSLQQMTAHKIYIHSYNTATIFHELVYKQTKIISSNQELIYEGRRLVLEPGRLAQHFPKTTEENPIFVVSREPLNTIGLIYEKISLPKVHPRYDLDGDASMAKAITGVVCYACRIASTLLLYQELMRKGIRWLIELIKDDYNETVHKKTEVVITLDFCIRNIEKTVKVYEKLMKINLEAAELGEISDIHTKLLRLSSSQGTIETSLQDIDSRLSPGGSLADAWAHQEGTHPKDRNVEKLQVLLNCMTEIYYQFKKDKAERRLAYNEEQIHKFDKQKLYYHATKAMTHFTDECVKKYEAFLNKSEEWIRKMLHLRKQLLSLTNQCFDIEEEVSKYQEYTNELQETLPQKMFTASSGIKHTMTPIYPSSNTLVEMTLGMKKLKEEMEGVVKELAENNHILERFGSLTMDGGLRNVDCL

Sequence of hJAK2 (O60674 whole entry): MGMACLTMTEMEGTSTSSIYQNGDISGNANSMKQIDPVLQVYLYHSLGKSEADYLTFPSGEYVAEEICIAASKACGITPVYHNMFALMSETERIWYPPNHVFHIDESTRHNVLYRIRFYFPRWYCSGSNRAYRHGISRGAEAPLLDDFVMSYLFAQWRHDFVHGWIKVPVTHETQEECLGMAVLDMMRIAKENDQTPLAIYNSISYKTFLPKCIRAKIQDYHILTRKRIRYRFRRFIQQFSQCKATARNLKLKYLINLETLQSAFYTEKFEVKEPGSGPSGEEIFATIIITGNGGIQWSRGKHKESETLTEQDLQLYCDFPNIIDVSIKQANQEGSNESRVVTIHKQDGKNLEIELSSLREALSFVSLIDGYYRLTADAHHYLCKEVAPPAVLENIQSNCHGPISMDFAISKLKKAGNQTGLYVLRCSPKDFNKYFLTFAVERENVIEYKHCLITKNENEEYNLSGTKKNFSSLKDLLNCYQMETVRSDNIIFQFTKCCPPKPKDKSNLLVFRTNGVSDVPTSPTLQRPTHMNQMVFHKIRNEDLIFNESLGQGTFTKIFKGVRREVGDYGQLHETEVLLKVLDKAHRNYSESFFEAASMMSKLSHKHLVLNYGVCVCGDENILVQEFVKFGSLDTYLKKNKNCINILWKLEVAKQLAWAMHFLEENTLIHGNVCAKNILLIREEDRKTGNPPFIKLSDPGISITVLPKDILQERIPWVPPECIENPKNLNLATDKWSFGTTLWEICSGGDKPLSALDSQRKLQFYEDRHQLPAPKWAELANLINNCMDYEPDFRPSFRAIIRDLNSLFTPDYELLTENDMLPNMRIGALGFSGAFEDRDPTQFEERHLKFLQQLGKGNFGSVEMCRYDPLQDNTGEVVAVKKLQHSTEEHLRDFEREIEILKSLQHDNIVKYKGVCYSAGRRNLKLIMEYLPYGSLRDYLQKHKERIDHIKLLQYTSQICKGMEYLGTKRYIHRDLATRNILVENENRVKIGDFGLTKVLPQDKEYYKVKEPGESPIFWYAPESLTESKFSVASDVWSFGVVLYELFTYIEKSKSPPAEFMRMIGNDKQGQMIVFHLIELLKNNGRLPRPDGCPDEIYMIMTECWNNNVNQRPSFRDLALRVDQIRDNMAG
Sequence of IKKε (Q14164 whole entry): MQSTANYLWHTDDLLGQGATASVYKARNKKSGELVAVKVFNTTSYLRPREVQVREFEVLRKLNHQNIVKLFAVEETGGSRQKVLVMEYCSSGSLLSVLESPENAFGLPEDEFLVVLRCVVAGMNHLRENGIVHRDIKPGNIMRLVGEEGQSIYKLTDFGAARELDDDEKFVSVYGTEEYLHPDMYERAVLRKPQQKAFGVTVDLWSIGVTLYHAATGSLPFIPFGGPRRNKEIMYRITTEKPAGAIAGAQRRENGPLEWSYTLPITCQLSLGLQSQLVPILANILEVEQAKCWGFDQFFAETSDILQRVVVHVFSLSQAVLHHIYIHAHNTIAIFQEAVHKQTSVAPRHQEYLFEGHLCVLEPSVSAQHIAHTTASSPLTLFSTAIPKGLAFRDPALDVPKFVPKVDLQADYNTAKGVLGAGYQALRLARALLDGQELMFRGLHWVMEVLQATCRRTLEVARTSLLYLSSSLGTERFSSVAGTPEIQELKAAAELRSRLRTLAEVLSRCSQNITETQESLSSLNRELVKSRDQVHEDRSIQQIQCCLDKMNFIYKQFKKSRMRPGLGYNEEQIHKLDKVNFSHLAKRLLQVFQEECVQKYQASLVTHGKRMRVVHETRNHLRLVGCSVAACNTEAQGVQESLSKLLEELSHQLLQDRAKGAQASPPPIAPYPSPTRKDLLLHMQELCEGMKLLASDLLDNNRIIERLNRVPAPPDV

Row | Compound | IC50 (IKKε) | IC50 (hJAK2) | IC50 (TBK1)
1 | COc1cc(Nc2ncnc(-c3ccc(O[C@H]4CCN(C(=O)CO)CC4(F)F)c(C#N)c3)n2)ccc1N1CCN(C2COC2)CC1 [Example 560, (S)-2-((3,3-difluoro-1-(2-hydroxyacetyl)piperidin-4-yl)oxy)-5-(4-((3-methoxy-4-(4-(oxetan-3-yl)piperazin-1-yl)phenyl)amino)-1,3,5-triazin-2-yl)benzonitrile] | 1 nM | 18 nM | 2 nM
2 | COc1cc(Nc2ncnc(-c3ccc(O[C@H]4CCN(C(=O)[C@H](C)O)CC4(F)F)c(C#N)c3)n2)ccc1N1CCN(C2COC2)CC1 [Example 561, 2-(((S)-3,3-difluoro-1-((S)-2-hydroxypropanoyl)piperidin-4-yl)oxy)-5-(4-((3-methoxy-4-(4-(oxetan-3-yl)piperazin-1-yl)phenyl)amino)-1,3,5-triazin-2-yl)benzonitrile] | 1 nM | 68 nM | 2 nM
3 | COc1cc(Nc2ncnc(-c3ccc(O[C@H]4CCN(C(=O)CCO)C[C@H]4F)c(C#N)c3)n2)ccc1N1CCN(C2COC2)CC1 [Example 562, 2-(((3R,4S)-3-fluoro-1-(3-hydroxypropanoyl)piperidin-4-yl)oxy)-5-(4-((3-methoxy-4-(4-(oxetan-3-yl)piperazin-1-yl)phenyl)amino)-1,3,5-triazin-2-yl)benzonitrile] | 6 nM | 110 nM | 3 nM
4 | Cc1ncsc1Nc1ncnc(-c2ccc(O[C@H]3CCN(C(=O)CO)C[C@H]3F)c(C#N)c2)n1 [Example 563, 2-(((3R,4S)-3-fluoro-1-(2-hydroxyacetyl)piperidin-4-yl)oxy)-5-(4-((4-methylthiazol-5-yl)amino)-1,3,5-triazin-2-yl)benzonitrile] | 3 nM | ≥ 1000 nM | 5 nM
5 | C[C@H](O)C(=O)N1CC[C@H](Oc2ccc(-c3ncnc(Nc4cn(C)nc4CO)n3)cc2C#N)[C@H](F)C1 [Example 564, 2-(((3R,4S)-3-fluoro-1-((S)-2-hydroxyproanoyl)piperidin-4-yl)oxy)-5-(4-((3-(hydroxymethyl)-1-methyl-1H-pyrazol-4-yl)amino)-1,3,5-triazin-2-yl)benzonitrile] | 109 nM | ≥ 1000 nM | 92 nM
6 | C[C@H](O)C(=O)N1CC[C@H](Oc2ccc(-c3ncnc(Nc4cnn(C)c4CO)n3)cc2C#N)[C@H](F)C1 [Example 565, 2-(((3R,4S)-3-fluoro-1-((S)-2-hydroxypropanoyl)piperidin-4-yl)oxy)-5-(4-((5-(hydroxymethyl)-1-methyl-1H-pyrazol-4-yl)amino)-1,3,5-triazin-2-yl)benzonitrile] | 126 nM | ≥ 1000 nM | 90 nM
7 | Cc1c(Nc2ncnc(-c3ccc(O[C@H]4CCN(C(=O)[C@H](C)O)C[C@H]4F)c(C#N)c3)n2)cnn1C [Example 566, 5-(4-((1,5-dimethyl-1H-pyrazol-4-yl)amino)-1,3,5-triazin-2-yl)-2-(((3R,4S)-3-fluoro-1-((S)-2-hydroxypropanoyl)piperidin-4-yl)oxy)benzonitrile] | 33 nM | ≥ 1000 nM | 14 nM
8 | Cc1c(Nc2ncnc(-c3ccc(O[C@H]4CCN(C(=O)[C@@H](O)CO)C[C@H]4F)c(C#N)c3)n2)cnn1C [Example 567, 2-(((3R,4S)-1-((S)-2,3-dihydroxypropanoyl)-3-fluoropiperidin-4-yl)oxy)-5-(4-((1,5-dimethyl-1H-pyrazol-4-yl)amino)-1,3,5-triazin-2-yl)benzonitrile] | 7 nM | ≥ 1000 nM | 3 nM
9 | CCn1cc(Nc2ncnc(-c3ccc(O[C@H]4CCN(C(=O)[C@H](C)O)C[C@H]4F)c(C#N)c3)n2)c(C)n1 [Example 568, 5-(4-((1-ethyl-3-methyl-1H-pyrazol-4-yl)amino)-1,3,5-triazin-2-yl)-2-(((3R,4S)-3-fluoro-1-((S)-2-hydroxypropanoyl)piperidin-4-yl)oxy)benzonitrile] | 21 nM | ≥ 1000 nM | 9 nM
10 | CCn1cc(Nc2ncnc(-c3ccc(O[C@H]4CCN(C(=O)CO)C[C@H]4F)c(C#N)c3)n2)c(C)n1 [Example 569, 5-(4-((1-ethyl-3-methyl-1H-pyrazol-4-yl)amino)-1,3,5-triazin-2-yl)-2-(((3R,4S)-3-fluoro-1-(2-hydroxyacetyl)piperidin-4-yl)oxy)benzonitrile] | 6 nM | ≥ 1000 nM | 4 nM
11 | Cc1ncc(Nc2ncnc(-c3ccc(O[C@H]4CCN(C(=O)[C@H](C)O)C[C@H]4F)c(C#N)c3)n2)s1 [Example 570, 2-(((3R,4S)-3-fluoro-1-((S)-2-hydroxypropanoyl)piperidin-4-yl)oxy)-5-(4-((2-methylthiazol-5-yl)amino)-1,3,5-triazin-2-yl)benzonitrile] | 4 nM | ≥ 1000 nM | 3 nM
12 | Cc1nc(C)c(Nc2ncnc(-c3ccc(O[C@H]4CCN(C(=O)[C@H](C)O)C[C@H]4F)c(C#N)c3)n2)s1 [Example 571, 5-(4-((2,4-dimethylthiazol-5-yl)amino)-1,3,5-triazin-2-yl)-2-(((3R,4S)-3-fluoro-1-((S)-2-hydroxypropanoyl)piperidin-4-yl)oxy)benzonitrile] | 11 nM | ≥ 1000 nM | 6 nM
13 | C[C@H](O)C(=O)N1CC[C@H](Oc2ccc(-c3ncnc(Nc4scnc4CO)n3)cc2C#N)[C@H](F)C1 [Example 572, 2-(((3R,4S)-3-fluoro-1-((S)-2-hydroxypropanoyl)piperidin-4-yl)oxy)-5-(4-((4-(hydroxymethyl)thiazol-5-yl)amino)-1,3,5-triazin-2-yl)benzonitrile] | 21 nM | ≥ 1000 nM | 36 nM
14 | C[C@H](O)CN1CCN(c2ccc(Nc3ncnc(-c4ccc(O[C@H]5CCN(C(=O)[C@H](C)O)C[C@H]5F)c(C#N)c4)n3)cc2)CC1 [Example 573, 2-(((3R,4S)-3-fluoro-1-((S)-2-hydroxypropanoyl)piperidin-4-yl)oxy)-5-(4-((4-(4-((S)-2-hydroxypropyl)piperazin-1-yl)phenyl)amino)-1,3,5-triazin-2-yl)benzonitrile] | 1 nM | 969 nM | 3 nM
15 | CC(C)n1cc(Nc2ncnc(-c3ccc(O[C@H]4CCN(C(=O)[C@@H](O)CO)C[C@H]4F)c(C#N)c3)n2)cn1 [Example 574, 2-(((3R,4S)-1-((S)-2,3-dihydroxypropanoyl)-3-fluoropiperidin-4-yl)oxy)-5-(4-((1-isopropyl-1H-pyrazol-4-yl)amino)-1,3,5-triazin-2-yl)benzonitrile] | 2 nM | 354 nM | 2 nM
16 | N#Cc1cc(-c2ncnc(Nc3ccc(N4CCN(C5COC5)CC4)cc3)n2)ccc1O[C@H]1CCN(C(=O)C(O)CO)CC1(F)F (stereo partly drawn) [Example 580, 2-(((4S)-1-(2,3-dihydroxypropanoyl)-3,3-difluoropiperidin-4-yl)oxy)-5-(4-((4-(4-(oxetan-3-yl)piperazin-1-yl)phenyl)amino)-1,3,5-triazin-2-yl)benzonitrile] | 1 nM | 165 nM | 2 nM
17 | N#Cc1cc(-c2ncnc(Nc3ccc(N4CCN(C5COC5)CC4)cc3)n2)ccc1O[C@H]1CCN(C(=O)[C@@H](O)CO)CC1(F)F [Example 581, 2-(((S)-1-((S)-2,3-dihydroxypropanoyl)-3,3-difluoropiperidin-4-yl)oxy)-5-(4-((4-(4-(oxetan-3-yl)piperazin-1-yl)phenyl)amino)-1,3,5-triazin-2-yl)benzonitrile] | 1 nM | 86 nM | 2 nM
18 | N#Cc1cc(-c2ncnc(Nc3ccc(N4CCN(C5COC5)CC4)cc3)n2)ccc1O[C@H]1CCN(C(=O)[C@H](O)CO)CC1(F)F [Example 582, 2-(((S)-1-((R)-2,3-dihydroxypropanoyl)-3,3-difluoropiperidin-4-yl)oxy)-5-(4-((4-(4-(oxetan-3-yl)piperazin-1-yl)phenyl)amino)-1,3,5-triazin-2-yl)benzonitrile] | 1 nM | 98 nM | 2 nM
19 | C[C@H](O)C(=O)N1CC[C@H](Oc2ccc(-c3ncnc(Nc4ccc(N5CCN(CCO)CC5)cc4)n3)cc2C#N)[C@H](F)C1 [Example 583, 2-(((3R,4S)-3-fluoro-1-((S)-2-hydroxypropanoyl)piperidin-4-yl)oxy)-5-(4-((4-(4-(2-hydroxyethyl)piperazin-1-yl)phenyl)amino)-1,3,5-triazin-2-yl)benzonitrile] | 1 nM | 479 nM | 2 nM
20 | N#Cc1cc(-c2ncnc(Nc3ccc(N4CCN(C5COC5)CC4)cc3)n2)ccc1O[C@H]1CCN(C(=O)[C@@H](O)CO)C[C@H]1F [Example 584, 2-(((3R,4S)-1-((S)-2,3-dihydroxypropanoyl)-3-fluoropiperidin-4-yl)oxy)-5-(4-((4-(4-(oxetan-3-yl)piperazin-1-yl)phenyl)amino)-1,3,5-triazin-2-yl)benzonitrile] | 1 nM | 433 nM | 2 nM
21 | N#Cc1cc(-c2ncnc(Nc3ccc(N4CCN(C5COC5)CC4)cc3)n2)ccc1O[C@H]1CCN(C(=O)[C@H](O)CO)C[C@H]1F [Example 585, 2-(((3R,4S)-1-((R)-2,3-dihydroxypropanoyl)-3-fluoropiperidin-4-yl)oxy)-5-(4-((4-(4-(oxetan-3-yl)piperazin-1-yl)phenyl)amino)-1,3,5-triazin-2-yl)benzonitrile] | 3 nM | 294 nM | 2 nM
22 | CC(C#N)C(=O)N1CC[C@H](Oc2ccc(-c3ncnc(Nc4ccc(N5CCN(C6COC6)CC5)cc4)n3)cc2C#N)[C@H](F)C1 (stereo partly drawn) [Example 586, 2-(((3R,4S)-1-(2-cyanopropanoyl)-3-fluoropiperidin-4-yl)oxy)-5-(4-((4-(4-(oxetan-3-yl)piperazin-1-yl)phenyl)amino)-1,3,5-triazin-2-yl)benzonitrile] | 28 nM | 212 nM | 11 nM

Reference: US10040781B2, “Tank-binding kinase inhibitor compounds” (Gilead Sciences, Inc., priority 2014, dated 2018)
